Assay results published in paper PMC12429925 (Molecules, 2025).
Read-outs that look alike come from different tables or passages of the source.

What was measured:
Assay in all cases: cells
Assay type in all cases: cell-based
[1] = test system: A2780 (human ovarian carcinoma) cells; conditions: for IC50: Homo sapiens
[2] = test system: CCD18Co (non-malignant human fibroblasts); conditions: CCD-18Co
[3] = test system: panel of five different human tumor cell lines; conditions: read-out: IC50 range over tumor cell lines
[4] = test system: A2780cis (ovarian carcinoma) cells; conditions: Homo sapiens
[5] = test system: A549 (lung carcinoma) cells; conditions: Homo sapiens
[6] = test system: MCF7 (breast carcinoma) cells; conditions: Homo sapiens
[7] = test system: HT29 (colorectal carcinoma) cells; conditions: Homo sapiens
[8] = A2780, 72 h, read-out: IC50 A2780
[9] = A549, 72 h, read-out: IC50 A549
[10] = MCF7, 72 h, read-out: IC50 MCF7
[11] = HT-29, 72 h, read-out: IC50 HT29

Compound | IC50 [1, 8] | IC50 ([2]; 72 h, read-out: IC50 CCD18Co) | IC50 ([4]; 72 h, read-out: IC50 A2780cis) | IC50 [5, 9] | IC50 [6, 10] | IC50 [7, 11] | other results
CCCCCCCCCCCCCCC(=O)NCc1ccc(O)c(OC)c1 [Compound 21, N-[(4-Hydroxy-3-methoxy)benzyl]pentadecanamide] | < 10 µM |  |  |  |  |  | 
COc1cc(CNC(=O)CCCCC=CC(C)C)ccc1O [A, 8-methyl-N-vanillyl-6-nonenamide, reference compound] | 15.9 µM | > 100 µM | 84.3 µM | 70.3 µM | 42.1 µM | 51 µM | IC50 ([2]; read-out: IC50 CCD18Co, converted into μg/mL): > 30.5 µg/mL; IC50 [3]: 15 to 84 µM; IC50 ([4]; read-out: IC50 A2780cis, converted into μg/mL): 25.8 µg/mL; IC50 ([5]; A549, read-out: IC50 A549, converted into μg/mL): 21.5 µg/mL; IC50 ([6]; MCF7, read-out: IC50 MCF7, converted into μg/mL): 12.9 µg/mL; IC50 ([7]; HT-29, read-out: IC50 HT29, converted into μg/mL): 15.6 µg/mL; Selectivity index SI (IC50 CCD18Co/IC50 A2780) [1]: >6.3; IC50 ([1]; A2780, read-out: IC50 A2780, converted into μg/mL): ~4.86 µg/mL
CCCCCCCCCCCCCC(=O)NCc1ccc(O)c(OC)c1 [Compound 19, N-[(4-Hydroxy-3-methoxy)benzyl]tetradecanamide] | < 10 µM |  |  |  |  |  | 
CCCCCCCCCCCC(=O)NCc1ccc(O)c(OC)c1 [Compound 15, N-[(4-Hydroxy-3-methoxy)benzyl]dodecanamide] | < 10 µM |  |  |  |  |  | 
CCCCCCCCCCCCCCCCC(=O)NCc1ccc(O)c(OC)c1 [Compound 25, N-[(4-Hydroxy-3-methoxy)benzyl]heptadecanamide] |  | > 100 µM | > 100 µM | 60.5 µM | 38.4 µM | 78.5 µM | 
CCCCCCCCCCCCCCCCCC(=O)NCc1ccc(O)c(OC)c1 [Compound 27, N-[(4-Hydroxy-3-methoxy)benzyl]octadecanamide] |  | > 100 µM | 76.4 µM | 50.3 µM | 32.6 µM | 42.4 µM | Selectivity index SI (IC50 CCD18Co/IC50 A2780) [1]: >29.0
CCCCCCCCCCCCC(=O)NCc1ccc(O)c(OC)c1 [Compound 17, N-[(4-Hydroxy-3-methoxy)benzyl]tridecanamide] | < 10 µM |  |  |  |  |  | 
CCCCCCCCCCCCCCCCCCC(=O)NCc1ccc(O)c(OC)c1 [Compound 29, N-[(4-Hydroxy-3-methoxy)benzyl]nonadecanamide] |  | > 100 µM | 59.5 µM | 55.3 µM | 15.9 µM | 68.4 µM | 
